Data from article PMC7044277 (Nature Communications, 2020).
Several values for one entry are separate records, joined by “and”; a condition that tells them apart may be missing. Identical values can stand only once.

What was measured:
[1] = molecular target: T1, 5HT4 (Homo sapiens, UniProt Q13639); assay: β-arrestin2 recruitment (Tango); assay type: cell-based; conditions: Fig_S10n, drug alone
T1 construct: expressed in transfected cells; host or cells: HTLA cells expressing TEV-fused β-arrestin2

[2] = tested on: serotonin receptor of Fig_S10h (subtype not given); assay: β-arrestin2 recruitment (Tango), agonist activity, source data Fig_S10h; assay type: cell-based, human; conditions: drug alone
[3] = tested on: serotonin receptor of Fig_S10i (subtype not given); assay: β-arrestin2 recruitment (Tango), agonist activity, source data Fig_S10i; assay type: cell-based, human; conditions: drug alone
[4] = molecular target: 5HT2A (Homo sapiens, UniProt P28223); assay: β-arrestin2 recruitment (Tango); assay type: cell-based; conditions: single replicate values
5HT2A, sequence (P28223 whole entry): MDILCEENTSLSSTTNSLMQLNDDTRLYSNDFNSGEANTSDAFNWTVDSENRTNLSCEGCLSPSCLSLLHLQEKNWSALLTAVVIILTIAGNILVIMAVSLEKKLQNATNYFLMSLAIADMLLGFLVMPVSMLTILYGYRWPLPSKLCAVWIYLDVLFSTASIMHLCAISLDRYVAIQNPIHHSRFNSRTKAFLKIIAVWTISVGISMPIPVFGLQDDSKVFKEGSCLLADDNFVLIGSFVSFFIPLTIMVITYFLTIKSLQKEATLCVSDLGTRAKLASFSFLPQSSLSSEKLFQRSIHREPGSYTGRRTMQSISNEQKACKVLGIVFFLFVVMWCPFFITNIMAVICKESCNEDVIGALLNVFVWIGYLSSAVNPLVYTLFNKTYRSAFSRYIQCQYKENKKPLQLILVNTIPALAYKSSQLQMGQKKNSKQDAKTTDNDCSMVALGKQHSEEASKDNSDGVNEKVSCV

T1 sequence (Q13639 whole entry, the tested form may be a part): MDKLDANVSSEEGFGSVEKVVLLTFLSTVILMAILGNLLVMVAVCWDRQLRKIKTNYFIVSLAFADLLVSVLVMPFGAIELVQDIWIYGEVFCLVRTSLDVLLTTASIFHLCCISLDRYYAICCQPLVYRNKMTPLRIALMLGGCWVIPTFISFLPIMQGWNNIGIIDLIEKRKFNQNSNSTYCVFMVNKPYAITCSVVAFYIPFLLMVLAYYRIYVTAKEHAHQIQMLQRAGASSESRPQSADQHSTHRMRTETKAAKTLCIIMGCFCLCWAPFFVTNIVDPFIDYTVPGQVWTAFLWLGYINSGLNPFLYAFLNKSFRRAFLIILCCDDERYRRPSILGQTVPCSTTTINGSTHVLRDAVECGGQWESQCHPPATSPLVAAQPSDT

With `NCCc1c[nH]c2ccc(O)cc12` [serotonin] the “β-arrestin2 recruitment response (dose-response source data, replicate values)” value (shortened to “β-arrestin2 recruitment response”) ([1]; Log[Drug] -6.52) was 4.364 and 3.213 and 1.27 and 4.689 and 5.849 and 4.639 and 0.7041 and 1.028 and 0.8286, the “β-arrestin2 recruitment response” value ([1]; Log[Drug] -7) was 0.4502 and 1.04 and 0.7749 and 1.703 and 3.757 and 0.2045 and 0.7898 and the “β-arrestin2 recruitment response” value ([1]; Log[Drug] -7.52) was 0.2639 and 1.123 and 0.6731 and 1.44 and 0.8323 and -0.173 and -0.1455 and 0.1779. The “β-arrestin2 recruitment response” value ([1]; Log[Drug] -8) was 0.909 and 1.368 and 1.768 and 1.945 and 1.002 and 4.528 and -0.04204 and 0.2773 and -0.04931, the “β-arrestin2 recruitment response” value ([1]; Log[Drug] -8.52) was 1.014 and 0.4607 and 1.27 and 2.026 and 2.149 and 0.7135 and 0.536 and the “β-arrestin2 recruitment response” value ([1]; Log[Drug] -9) was 4.112 and 0.5135 and 0.7781 and 0.7219 and 2.151 and -0.2021 and -0.04689 and 0.1787. For the same molecule, the “β-arrestin2 recruitment response” value ([1]; Log[Drug] -9.52) was -0.1745 and 0.2987 and 0.5551 and 1.654 and 2.192 and 1.098 and -0.3371 and 0.1099, the “β-arrestin2 recruitment response” value ([1]; Log[Drug] -10) was 0.07451 and 0.7799 and 1.035 and 0.7688 and 1.653 and 0.865 and -0.1787 and 0.1471 and the “β-arrestin2 recruitment response” value ([1]; Log[Drug] -10.52) was -0.001242 and 0.2372 and 0.7047 and -0.005208 and 0.949 and 0.8156 and -0.3363 and -0.2741. For the same molecule, the “β-arrestin2 recruitment response” value ([1]; Log[Drug] -11) was 0.09934 and 0.2831 and 0.9059 and 0.201 and 0.5729 and -0.1083 and 0.6362 and -0.2773, the “β-arrestin2 recruitment response” value ([1]; Log[Drug] -11.52) was -0.1788 and 1.011 and 0.1838 and 2.165 and 0.3594 and 0.526 and -0.2336 and -0.308 and 0.3767 and the “β-arrestin2 recruitment response” value ([1]; Log[Drug] -12) was 0.2813 and -0.1521 and 0.7458 and 0.6208 and 0.6615 and -0.1358 and -0.3662. For the same molecule, the “response, single replicates of the concentration-response curve” value (shortened to “response, single replicates”) ([2]; Log[Drug] -6.52) was 12.0291 and 19.5952, the “response, single replicates” value ([2]; Log[Drug] -7) was 2.6011 and -1.075 and 3.048 and 4.334 and 32.5585 and -0.4363 and 18.2842 and -0.3304 and 3.805 and the “response, single replicates” value ([2]; Log[Drug] -7.52) was -5.305 and -8.997 and -2.862 and 15.7285 and -12.0664 and -2.954 and 4.129 and -0.7381 and 8.911. The “response, single replicates” value ([2]; Log[Drug] -8) was 11.8117 and 29.1299 and 15.6343 and 0.03576 and -18.7755 and 4.449 and 0.1518 and -2.004 and 0.1399, the “response, single replicates” value ([2]; Log[Drug] -8.52) was 12.7881 and -3.85 and 7.621 and -15.471 and -6.659 and -3.791 and 12.564 and 15.564 and 7.72 and the “response, single replicates” value ([2]; Log[Drug] -9) was 21.6587 and -10.519 and 17.1443 and 3.469 and -2.646 and 17.2305 and 22.0208 and 9.871 and -3.368. For the same molecule, the “response, single replicates” value ([2]; Log[Drug] -9.52) was -18.3856 and 11.0725 and -0.8301 and -0.6294 and 19.1689 and -9.835 and 1.3631 and 4.138 and -4.946, the “response, single replicates” value ([2]; Log[Drug] -10) was 3.467 and 11.9303 and -16.5277 and -15.8143 and 26.0782 and 5.9867 and -1.32 and 21.2827 and -2.198 and the “response, single replicates” value ([2]; Log[Drug] -10.52) was -7.491 and 8.349 and -14.563 and -13.4182 and -6.602 and -12.1379 and 3.417 and 10.9077 and 6.354. For the same molecule, the “response, single replicates” value ([2]; Log[Drug] -11) was 29.0865 and 1.862 and -7.017 and 5.1 and 20.1702 and -18.3463 and 23.1562 and 16.2753 and 2.497, the “response, single replicates” value ([2]; Log[Drug] -11.52) was -9.416 and 4.206 and 8.815 and -3.0613 and -4.084 and 8.812 and 2.924 and 7.927 and -1.673 and the “response, single replicates” value ([2]; Log[Drug] -12) was 14.8397 and -1.032 and -13.808 and 8.962 and 3.855 and 6.222 and -0.3036 and -4.71. The “response, single replicates” value ([3]; Log[Drug] -11.52) was -4.3954 and -4.987 and -4.556 and 52.5363 and 8.29 and -6.9 and -8.356 and -5.164 and -18.2115, the “response, single replicates” value ([3]; Log[Drug] -12) was 5.024 and 5.16 and -7.062 and 21.8387 and 17.0887 and 8.533 and the “Fig_S10k dose-response, drug alone (agonist mode), β-arrestin2 recruitment” value (from here on “Fig_S10k dose-response, drug alone”) ([4]; Log[Drug] -7) was 2.15 and 3.679 and 4.811 and -0.4868 and 5.6493 and -0.2054. The “Fig_S10k dose-response, drug alone” value ([4]; Log[Drug] -7.52) was -0.7997 and 2.965 and 17.8531 and -0.2054 and -0.763 and 5.3131 and 4.228 and 3.612 and 4.7477, the “Fig_S10k dose-response, drug alone” value ([4]; Log[Drug] -8) was -3.989 and -1.195 and 1.849 and -1.365 and -2.184 and 9.999 and -0.5868 and 4.719 and the “Fig_S10k dose-response, drug alone” value ([4]; Log[Drug] -8.52) was -0.2128 and 3.793 and -1.972 and 2.067 and -0.1908 and -0.1834 and -1.527 and -2.08 and -0.286 and -0.3848 and 2.472 and 0.1395. The “Fig_S10k dose-response, drug alone” value ([4]; Log[Drug] -9) was 2.751 and -4.014 and -3.749 and 5.589 and 0.3815 and 2.971 and 0.02275 and 2.73 and 0.208 and 0.558 and 0.5339, the “Fig_S10k dose-response, drug alone” value ([4]; Log[Drug] -9.52) was 1.871 and 1.852 and -0.4489 and -0.2054 and 2.157 and -3.113 and 1.313 and -0.39 and 0.00481 and 0.7312 and 5.479 and the “Fig_S10k dose-response, drug alone” value ([4]; Log[Drug] -10) was 0.9831 and -1.745 and 1.865 and 2.4358 and -0.7924 and 0.9424 and -2.603 and -1.547 and -0.3848 and 0.8707 and 19.7653. The “Fig_S10k dose-response, drug alone” value ([4]; Log[Drug] -10.52) was 1.062 and 0.5626 and 5.943 and 0.675 and 1.189 and 0.1462 and -0.6434 and -0.1876 and 0.3223, the “Fig_S10k dose-response, drug alone” value ([4]; Log[Drug] -11) was -1.391 and 0.03161 and 5.943 and 0.3155 and -1.667 and -1.459 and -0.8081 and the “Fig_S10k dose-response, drug alone” value ([4]; Log[Drug] -11.52) was 2.458 and 6.164 and 3.035 and 8.661 and 1.783 and -1.534 and 0.9332. For the same molecule, the “Fig_S10k dose-response, drug alone” value ([4]; Log[Drug] -12) was 0.4182 and -4.489 and -0.5209 and 0.1755 and -2.72 and 0.5037 and -1.135 and 0.1924 and 0.9524.
